What was measured:
Assay in all cases: KINOMEscan competition binding
Details in all cases: compound 10.0 µM
AAK1 (human) = AAK1 (human) (UniProt Q2M2I8)
[1] = tested on: ABL1 (human), P00519 [Y253F]
ABL2 (human) = ABL2 (human) (UniProt P42684)
AKT3 (human) = AKT3 (human) (UniProt Q9Y243)
BTK (human) = BTK (human) (UniProt Q06187)
CAMK2B (human) = CAMK2B (human) (UniProt Q13554)
EPHA2 (human) = EPHA2 (human) (UniProt P29317)
EPHA7 (human) = EPHA7 (human) (UniProt Q15375)
FES (human) = FES (human) (UniProt P07332)
FRK (human) = FRK (human) (UniProt P42685)
FYN (human) = FYN (human) (UniProt P06241)
MAP3K4 (human) = MAP3K4 (human) (UniProt Q9Y6R4)
MAP3K7 (human) = MAP3K7 (human) (UniProt O43318)
MAPK4 (human) = MAPK4 (human) (UniProt P31152)
MAPK7 (human) = MAPK7 (human) (UniProt Q13164)
MYLK3 (human) = MYLK3 (human) (UniProt Q32MK0)
MYO3B (human) = MYO3B (human) (UniProt Q8WXR4)
NEK4 (human) = NEK4 (human) (UniProt P51957)
NEK5 (human) = NEK5 (human) (UniProt Q6P3R8)
NEK6 (human) = NEK6 (human) (UniProt Q9HC98)
NIM1 (human) = NIM1 (human) (UniProt Q8IY84)
PDGFRB (human) = PDGFRB (human) (UniProt P09619)
PIK3CA (human) = PIK3CA (human) (UniProt P42336)
PIP5K1A (human) = PIP5K1A (human) (UniProt Q99755)
PKMYT1 (human) = PKMYT1 (human) (UniProt Q99640)
PLK1 (human) = PLK1 (human) (UniProt P53350)
PRKG2 (human) = PRKG2 (human) (UniProt Q13237)
PRKX (human) = PRKX (human) (UniProt P51817)
PTK2 (human) = PTK2 (human) (UniProt Q05397)
RIOK3 (human) = RIOK3 (human) (UniProt O14730)
ROS1 (human) = ROS1 (human) (UniProt P08922)
RPS6KB1 (human) = RPS6KB1 (human) (UniProt P23443)
SGK110 (human) = SGK110 (human) (UniProt P0C264)
SIK3 (human) = SIK3 (human) (UniProt Q9Y2K2)
STK11 (human) = STK11 (human) (UniProt Q15831)
STK16 (human) = STK16 (human) (UniProt O75716)
STK17A (human) = STK17A (human) (UniProt Q9UEE5)
STK32C (human) = STK32C (human) (UniProt Q86UX6)
TNK2 (human) = TNK2 (human) (UniProt Q07912)
TNNI3K (human) = TNNI3K (human) (UniProt Q59H18)
TYRO3 (human) = TYRO3 (human) (UniProt Q06418)

Chain of PIP5K1A (human) (Q99755 whole entry, looked up): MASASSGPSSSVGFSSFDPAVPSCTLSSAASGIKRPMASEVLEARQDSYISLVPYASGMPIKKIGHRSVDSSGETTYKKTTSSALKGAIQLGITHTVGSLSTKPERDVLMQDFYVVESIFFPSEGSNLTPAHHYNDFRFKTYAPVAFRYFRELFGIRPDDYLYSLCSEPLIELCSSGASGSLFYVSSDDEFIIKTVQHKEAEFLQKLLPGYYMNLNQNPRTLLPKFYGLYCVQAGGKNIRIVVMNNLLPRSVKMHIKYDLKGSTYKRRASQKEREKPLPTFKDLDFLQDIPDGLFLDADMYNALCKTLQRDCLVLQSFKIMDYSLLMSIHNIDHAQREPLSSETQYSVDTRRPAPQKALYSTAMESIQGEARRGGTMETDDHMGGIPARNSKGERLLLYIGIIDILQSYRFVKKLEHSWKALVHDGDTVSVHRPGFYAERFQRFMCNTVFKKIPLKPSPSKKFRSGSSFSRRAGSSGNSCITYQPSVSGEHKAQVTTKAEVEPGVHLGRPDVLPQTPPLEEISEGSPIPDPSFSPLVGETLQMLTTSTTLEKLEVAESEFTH
Chain of EPHA7 (human) (Q15375 whole entry, looked up): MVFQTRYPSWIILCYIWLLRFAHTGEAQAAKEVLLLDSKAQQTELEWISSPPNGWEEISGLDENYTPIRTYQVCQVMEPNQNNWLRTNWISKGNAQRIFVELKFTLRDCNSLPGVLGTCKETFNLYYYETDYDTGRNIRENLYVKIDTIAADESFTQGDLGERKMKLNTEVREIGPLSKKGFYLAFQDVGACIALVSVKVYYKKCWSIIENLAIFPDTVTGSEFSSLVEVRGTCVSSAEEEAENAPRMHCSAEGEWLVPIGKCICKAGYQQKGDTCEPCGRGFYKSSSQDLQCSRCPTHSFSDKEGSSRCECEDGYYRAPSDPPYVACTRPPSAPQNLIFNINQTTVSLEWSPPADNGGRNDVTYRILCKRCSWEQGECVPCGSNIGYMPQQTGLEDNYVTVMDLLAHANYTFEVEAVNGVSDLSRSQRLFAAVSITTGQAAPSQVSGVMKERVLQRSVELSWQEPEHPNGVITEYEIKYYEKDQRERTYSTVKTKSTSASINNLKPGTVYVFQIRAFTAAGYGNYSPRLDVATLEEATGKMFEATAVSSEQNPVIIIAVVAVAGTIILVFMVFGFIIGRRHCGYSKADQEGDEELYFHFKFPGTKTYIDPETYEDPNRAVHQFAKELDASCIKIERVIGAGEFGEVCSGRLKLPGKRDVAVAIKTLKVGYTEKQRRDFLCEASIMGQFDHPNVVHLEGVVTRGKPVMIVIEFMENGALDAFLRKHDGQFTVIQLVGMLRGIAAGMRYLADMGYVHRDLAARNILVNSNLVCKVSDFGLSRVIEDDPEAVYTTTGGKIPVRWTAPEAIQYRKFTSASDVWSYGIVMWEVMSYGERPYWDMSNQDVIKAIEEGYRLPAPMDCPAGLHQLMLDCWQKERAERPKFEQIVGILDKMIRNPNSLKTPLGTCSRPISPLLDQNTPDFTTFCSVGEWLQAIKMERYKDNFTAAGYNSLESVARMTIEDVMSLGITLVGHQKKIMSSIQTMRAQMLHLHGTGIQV
Chain of AKT3 (human) (Q9Y243 whole entry, looked up): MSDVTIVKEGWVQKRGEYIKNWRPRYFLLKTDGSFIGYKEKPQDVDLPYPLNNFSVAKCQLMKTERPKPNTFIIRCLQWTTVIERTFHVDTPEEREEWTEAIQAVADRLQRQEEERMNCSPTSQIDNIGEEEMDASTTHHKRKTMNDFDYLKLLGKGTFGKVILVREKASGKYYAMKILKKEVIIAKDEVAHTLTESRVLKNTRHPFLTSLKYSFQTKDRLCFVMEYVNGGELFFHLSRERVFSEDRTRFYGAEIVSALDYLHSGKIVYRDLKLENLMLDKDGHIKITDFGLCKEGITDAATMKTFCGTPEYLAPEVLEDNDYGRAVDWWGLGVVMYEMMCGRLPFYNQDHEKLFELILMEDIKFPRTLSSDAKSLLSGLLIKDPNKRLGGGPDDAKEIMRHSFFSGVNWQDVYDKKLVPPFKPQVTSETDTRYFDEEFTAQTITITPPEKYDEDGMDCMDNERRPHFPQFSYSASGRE
Chain of ROS1 (human) (P08922 whole entry, looked up): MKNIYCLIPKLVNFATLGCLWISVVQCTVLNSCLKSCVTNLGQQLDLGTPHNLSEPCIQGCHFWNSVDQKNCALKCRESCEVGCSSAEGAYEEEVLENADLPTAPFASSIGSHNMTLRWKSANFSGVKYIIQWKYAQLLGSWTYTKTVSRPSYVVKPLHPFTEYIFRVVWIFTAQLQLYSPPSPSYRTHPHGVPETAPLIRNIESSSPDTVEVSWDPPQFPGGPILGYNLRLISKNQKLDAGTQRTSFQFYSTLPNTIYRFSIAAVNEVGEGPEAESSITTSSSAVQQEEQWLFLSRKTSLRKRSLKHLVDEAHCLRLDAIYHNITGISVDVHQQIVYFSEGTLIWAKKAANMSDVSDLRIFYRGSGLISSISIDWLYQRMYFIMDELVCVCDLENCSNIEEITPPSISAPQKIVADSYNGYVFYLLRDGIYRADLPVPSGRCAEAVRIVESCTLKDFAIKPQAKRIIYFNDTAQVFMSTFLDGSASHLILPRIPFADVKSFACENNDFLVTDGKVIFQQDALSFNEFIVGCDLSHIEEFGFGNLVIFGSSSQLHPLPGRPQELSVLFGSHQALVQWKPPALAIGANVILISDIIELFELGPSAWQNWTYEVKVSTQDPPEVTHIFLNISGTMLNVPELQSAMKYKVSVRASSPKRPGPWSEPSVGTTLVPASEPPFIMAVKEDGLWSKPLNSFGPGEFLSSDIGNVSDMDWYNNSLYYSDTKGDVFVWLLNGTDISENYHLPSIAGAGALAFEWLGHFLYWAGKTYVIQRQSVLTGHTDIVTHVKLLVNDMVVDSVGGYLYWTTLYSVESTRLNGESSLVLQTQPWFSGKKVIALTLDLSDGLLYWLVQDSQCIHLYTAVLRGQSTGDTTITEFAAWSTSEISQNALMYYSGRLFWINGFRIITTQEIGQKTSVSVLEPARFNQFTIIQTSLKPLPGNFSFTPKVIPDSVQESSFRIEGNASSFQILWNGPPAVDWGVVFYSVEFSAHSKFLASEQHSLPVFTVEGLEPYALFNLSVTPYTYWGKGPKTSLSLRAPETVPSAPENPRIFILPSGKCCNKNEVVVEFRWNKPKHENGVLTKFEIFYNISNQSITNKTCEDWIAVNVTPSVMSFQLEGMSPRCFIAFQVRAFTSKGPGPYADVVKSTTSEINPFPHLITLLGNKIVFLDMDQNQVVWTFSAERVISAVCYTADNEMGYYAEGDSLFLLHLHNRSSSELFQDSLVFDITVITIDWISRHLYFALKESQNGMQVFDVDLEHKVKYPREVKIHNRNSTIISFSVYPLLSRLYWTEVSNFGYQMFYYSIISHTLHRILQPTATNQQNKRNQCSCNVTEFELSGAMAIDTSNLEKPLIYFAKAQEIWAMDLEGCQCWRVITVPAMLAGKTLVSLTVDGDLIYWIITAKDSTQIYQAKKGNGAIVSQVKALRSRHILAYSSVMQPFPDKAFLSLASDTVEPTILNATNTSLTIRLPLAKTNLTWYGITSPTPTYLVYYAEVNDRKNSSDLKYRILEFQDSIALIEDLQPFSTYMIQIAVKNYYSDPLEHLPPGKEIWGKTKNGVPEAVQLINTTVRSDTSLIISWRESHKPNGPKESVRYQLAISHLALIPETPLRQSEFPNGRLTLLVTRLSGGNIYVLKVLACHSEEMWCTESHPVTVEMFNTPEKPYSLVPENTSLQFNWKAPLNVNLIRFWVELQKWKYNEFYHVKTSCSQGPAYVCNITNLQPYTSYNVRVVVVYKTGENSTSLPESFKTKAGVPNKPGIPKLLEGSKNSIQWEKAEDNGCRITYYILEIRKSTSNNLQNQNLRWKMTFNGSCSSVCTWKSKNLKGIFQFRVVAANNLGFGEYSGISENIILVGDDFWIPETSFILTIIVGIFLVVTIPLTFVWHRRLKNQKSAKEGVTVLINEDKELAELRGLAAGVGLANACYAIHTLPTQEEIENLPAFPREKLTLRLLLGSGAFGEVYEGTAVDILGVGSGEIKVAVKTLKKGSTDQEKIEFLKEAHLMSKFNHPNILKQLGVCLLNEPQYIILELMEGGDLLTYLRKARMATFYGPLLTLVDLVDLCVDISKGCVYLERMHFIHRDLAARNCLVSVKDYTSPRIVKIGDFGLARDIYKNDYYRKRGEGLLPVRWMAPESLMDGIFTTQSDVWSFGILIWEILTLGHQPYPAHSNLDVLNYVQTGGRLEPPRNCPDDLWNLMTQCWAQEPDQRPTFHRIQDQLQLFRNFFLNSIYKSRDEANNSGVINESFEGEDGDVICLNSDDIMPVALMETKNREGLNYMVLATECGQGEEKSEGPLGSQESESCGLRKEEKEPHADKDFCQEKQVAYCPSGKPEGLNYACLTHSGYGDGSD
Chain of PLK1 (human) (P53350 whole entry, looked up): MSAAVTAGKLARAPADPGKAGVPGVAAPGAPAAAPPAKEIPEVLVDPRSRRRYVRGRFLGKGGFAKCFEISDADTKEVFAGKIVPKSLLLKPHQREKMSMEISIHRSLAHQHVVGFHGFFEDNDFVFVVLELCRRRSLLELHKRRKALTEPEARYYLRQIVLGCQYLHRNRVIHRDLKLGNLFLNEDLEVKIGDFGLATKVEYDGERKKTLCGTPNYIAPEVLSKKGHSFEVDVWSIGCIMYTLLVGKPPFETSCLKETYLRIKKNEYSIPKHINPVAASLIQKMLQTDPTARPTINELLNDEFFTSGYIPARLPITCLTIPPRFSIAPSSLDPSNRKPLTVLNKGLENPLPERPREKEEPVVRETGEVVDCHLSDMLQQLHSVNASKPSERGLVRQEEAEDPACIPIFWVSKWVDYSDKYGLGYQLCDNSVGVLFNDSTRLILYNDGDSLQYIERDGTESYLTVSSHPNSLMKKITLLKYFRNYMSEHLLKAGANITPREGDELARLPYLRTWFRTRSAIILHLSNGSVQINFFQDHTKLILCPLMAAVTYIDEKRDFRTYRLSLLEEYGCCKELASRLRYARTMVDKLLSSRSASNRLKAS

`COc1cc2ncnc(-n3nc(-c4ccccn4)nc3N)c2cc1OC` showed a kinase still bound, per cent of control (AAK1 (human)) of 6.9%, a kinase still bound, per cent of control [1] of 0.3% and a kinase still bound, per cent of control (ABL2 (human)) of 33%. The kinase still bound, per cent of control (AKT3 (human)) was 100%, the kinase still bound, per cent of control (BTK (human)) was 51% and the kinase still bound, per cent of control (CAMK2B (human)) was 37%. It also gave a kinase still bound, per cent of control (EPHA2 (human)) of 27%, a kinase still bound, per cent of control (EPHA7 (human)) of 18% and a kinase still bound, per cent of control (FES (human)) of 99%. For the same molecule, the kinase still bound, per cent of control (FRK (human)) was 19%, the kinase still bound, per cent of control (FYN (human)) was 25% and the kinase still bound, per cent of control (MAP3K4 (human)) was 100%. It also gave a kinase still bound, per cent of control (MAP3K7 (human)) of 15%, a kinase still bound, per cent of control (MAPK4 (human)) of 85% and a kinase still bound, per cent of control (MAPK7 (human)) of 83%. It also gave a kinase still bound, per cent of control (MYLK3 (human)) of 100%, a kinase still bound, per cent of control (MYO3B (human)) of 100% and a kinase still bound, per cent of control (NEK4 (human)) of 41%. The kinase still bound, per cent of control (NEK5 (human)) was 26%, the kinase still bound, per cent of control (NEK6 (human)) was 0.15% and the kinase still bound, per cent of control (NIM1 (human)) was 89%. The kinase still bound, per cent of control (PDGFRB (human)) was 3.4%, the kinase still bound, per cent of control (PIK3CA (human)) was 38% and the kinase still bound, per cent of control (PIP5K1A (human)) was 6.4%. It also gave a kinase still bound, per cent of control (PKMYT1 (human)) of 63%, a kinase still bound, per cent of control (PLK1 (human)) of 22% and a kinase still bound, per cent of control (PRKG2 (human)) of 75%. For the same molecule, the kinase still bound, per cent of control (PRKX (human)) was 79%, the kinase still bound, per cent of control (PTK2 (human)) was 80% and the kinase still bound, per cent of control (RIOK3 (human)) was 32%. The kinase still bound, per cent of control (ROS1 (human)) was 25%, the kinase still bound, per cent of control (RPS6KB1 (human)) was 2.6% and the kinase still bound, per cent of control (SGK110 (human)) was 100%. It also gave a kinase still bound, per cent of control (SIK3 (human)) of 83%, a kinase still bound, per cent of control (STK11 (human)) of 100% and a kinase still bound, per cent of control (STK16 (human)) of 2.8%. For the same molecule, the kinase still bound, per cent of control (STK17A (human)) was 1.6%, the kinase still bound, per cent of control (STK32C (human)) was 44% and the kinase still bound, per cent of control (TNK2 (human)) was 54%. It also gave a kinase still bound, per cent of control (TNNI3K (human)) of 80% and a kinase still bound, per cent of control (TYRO3 (human)) of 63%.
For `O=C(Nc1cccc(Nc2ncc(Br)c(NCCc3cnc[nH]3)n2)c1)N1CCCC1`, the kinase still bound, per cent of control (AAK1 (human)) was 3.1%, the kinase still bound, per cent of control [1] was 0.1% and the kinase still bound, per cent of control (ABL2 (human)) was 7.8%. For the same molecule, the kinase still bound, per cent of control (AKT3 (human)) was 100%, the kinase still bound, per cent of control (BTK (human)) was 5.2% and the kinase still bound, per cent of control (CAMK2B (human)) was 35%. The kinase still bound, per cent of control (EPHA2 (human)) was 60%, the kinase still bound, per cent of control (EPHA7 (human)) was 44% and the kinase still bound, per cent of control (FES (human)) was 33%. The kinase still bound, per cent of control (FRK (human)) was 46%, the kinase still bound, per cent of control (FYN (human)) was 8.2% and the kinase still bound, per cent of control (MAP3K4 (human)) was 47%. The kinase still bound, per cent of control (MAP3K7 (human)) was 1.3%, the kinase still bound, per cent of control (MAPK4 (human)) was 3.2% and the kinase still bound, per cent of control (MAPK7 (human)) was 62%. The kinase still bound, per cent of control (MYLK3 (human)) was 0.1%, the kinase still bound, per cent of control (MYO3B (human)) was 93% and the kinase still bound, per cent of control (NEK4 (human)) was 9.4%. For the same molecule, the kinase still bound, per cent of control (NEK5 (human)) was 0.5%, the kinase still bound, per cent of control (NEK6 (human)) was 0.5% and the kinase still bound, per cent of control (NIM1 (human)) was 0.05%. It also gave a kinase still bound, per cent of control (PDGFRB (human)) of 0%, a kinase still bound, per cent of control (PIK3CA (human)) of 100% and a kinase still bound, per cent of control (PIP5K1A (human)) of 1%. The kinase still bound, per cent of control (PKMYT1 (human)) was 100%, the kinase still bound, per cent of control (PLK1 (human)) was 41% and the kinase still bound, per cent of control (PRKG2 (human)) was 4.8%. It also gave a kinase still bound, per cent of control (PRKX (human)) of 0.2%, a kinase still bound, per cent of control (PTK2 (human)) of 0.2% and a kinase still bound, per cent of control (RIOK3 (human)) of 0.5%. For the same molecule, the kinase still bound, per cent of control (ROS1 (human)) was 97%, the kinase still bound, per cent of control (RPS6KB1 (human)) was 3.2% and the kinase still bound, per cent of control (SGK110 (human)) was 0.95%. The kinase still bound, per cent of control (SIK3 (human)) was 7%, the kinase still bound, per cent of control (STK11 (human)) was 3.2% and the kinase still bound, per cent of control (STK16 (human)) was 0.55%. The kinase still bound, per cent of control (STK17A (human)) was 0.2%, the kinase still bound, per cent of control (STK32C (human)) was 100% and the kinase still bound, per cent of control (TNK2 (human)) was 18%. For the same molecule, the kinase still bound, per cent of control (TNNI3K (human)) was 28% and the kinase still bound, per cent of control (TYRO3 (human)) was 85%.

Source: the kinase profiling compilation of Christmann-Franck et al. (2016)
